Numbered stars: 1 amine (or outer) side, 2 acyl side, 3 side chain; on linkers, the order of the positions; unused ones are H or OH. Square brackets hold non-standard residues; d marks the D form. Peptide text beside a SMILES is read from it. X1 = Cc1c(COc2ccc(C[C@H](N[*:1])C(=O)[*:2])cc2Br)cccc1-c1ccccc1
These compounds were tested against T1, PD-1/PD-L1 interaction (Homo sapiens, UniProt Q9NZQ7) (assay: AlphaLISA amplified luminescence proximity homogeneous assay, inhibition of PD-1/PD-L1 binding). Settings: AlphaLISA, His-tagged PD-L1 and biotin-conjugated PD-1, 25 °C, 90 min.
T1 construct: purchased PerkinElmer AL356 HV/C/F
T1 sequence (Q9NZQ7 19-238 limits assumed): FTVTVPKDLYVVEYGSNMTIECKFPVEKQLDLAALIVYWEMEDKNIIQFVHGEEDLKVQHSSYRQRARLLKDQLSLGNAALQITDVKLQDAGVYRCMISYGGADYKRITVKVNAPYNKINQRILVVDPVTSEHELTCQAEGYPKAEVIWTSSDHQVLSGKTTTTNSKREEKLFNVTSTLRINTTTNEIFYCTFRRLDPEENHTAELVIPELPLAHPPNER
Source text: To evaluate the binding affinities of the compounds for PD-L1, we used the amplified luminescence proximity homogeneous assay (Alpha) by using the AlphaLISA® assay kit [38]. This assay is based on photoinduced energy transfer between donor and acceptor beads conjugated to PD-1 and PD-L1, respectively (Figure S6).
In this assay, direct binding of an inhibitor to PD-L1 is detected by photoinduced energy transfer (Figure S6). Biotin-conjugated PD-1 is attached to streptavidin-coated donor beads and histidine (His)-tagged PD-L1 is attached to anti-His-conjugated acceptor beads. Photoexcitation of the donor beads at 680 nm yields singlet oxygen.
Positive and negative technical controls were included in parallel. Positive controls contained buffer (2 μL) in place of solution 1–10, and negative controls contained only the beads (2 μL each) and buffer (6 μL).
The reaction samples (10 μM) were placed in a 384-well microplate and photoirradiated at 680 nm from the top. […] IC50 values were estimated from a sigmoidal curve of fluorescence intensity vs. inhibitor concentration using a relative weighting method (1/Y^2 weighting) with GraphPad Prism 8 (GraphPad Software Inc., San Diego, CA, USA).

Compound | IC50 [µM]
Cc1c(COc2ccc(C[C@H](NC(=O)OCC3c4ccccc4-c4ccccc43)C(=O)OC(C)(C)C)cc2Br)cccc1-c1ccccc1 [Compound5, (S)-tert-Butyl 2-({[(9H-fluoren-9-yl)methoxy]carbonyl}amino)-3-{3-bromo-4-[(2-methyl-1,1’-biphenyl-3-yl)methoxy]phenyl}propanoate] | 897
Cc1c(COc2ccc(C[C@H](NC(=O)OCC3c4ccccc4-c4ccccc43)C(=O)O)cc2Br)cccc1-c1ccccc1 [Compound6, (S)-2-({[(9H-fluoren-9-yl)methoxy]carbonyl}amino)-3-{3-bromo-4-[(2-methyl-1,1’-biphenyl-3-yl)methoxy]phenyl}propanoic acid] | 1420
Cc1c(COc2ccc(C[C@H](NC(=O)CN)C(=O)O)cc2Br)cccc1-c1ccccc1 [GX] | 448
Cc1c(COc2ccc(C[C@H](NC(=O)[C@@H](N)CCCNC(=N)N)C(=O)N[C@@H](CC(N)=O)C(=O)O)cc2Br)cccc1-c1ccccc1 [RXN] | 405
Cc1c(COc2ccc(C[C@H](N)C(=O)N[C@@H](C)C(=O)O)cc2Br)cccc1-c1ccccc1 [XA] | 22.3
Cc1c(COc2ccc(C[C@H](N)C(=O)NCC(=O)O)cc2Br)cccc1-c1ccccc1 [XG] | 2.1
Cc1c(COc2ccc(C[C@H](N)C(=O)N[C@@H](Cc3c[nH]c4ccccc34)C(=O)O)cc2Br)cccc1-c1ccccc1 [XW] | 845

Further lines, results first:

IC50 [µM] | Compound
308 | CSCC[C@H](NC(=O)[C@H](CCCCN)NC(=O)[C@H](CC(N)=O)NC(=O)[C@H](Cc1ccc(OCc2cccc(-c3ccccc3)c2C)c(Br)c1)NC(=O)[C@H](CCCNC(=N)N)NC(=O)[C@H](CCC(=O)O)NC(=O)[C@@H](N)CS)C(=O)O [CERXNKM] (H-CER[X1]NKM-OH)
309 | Cc1c(CO)cccc1-c1ccccc1 [Compound1, 3-hydroxymethyl-2-methylbiphenyl]
1060 | CC(C)(C)OC(=O)[C@H](Cc1ccc(O)c(Br)c1)NC(=O)OCC1c2ccccc2-c2ccccc21 [Compound4, (S)-tert-Butyl 2-({[(9H-fluoren-9-yl)methoxy]carbonyl}amino)-3-(3-bromo-4-hydroxyphenyl)propanoate]
312 | CC[C@H](C)[C@H](NC(=O)[C@H](CC(N)=O)NC(=O)[C@H](CC(N)=O)NC(=O)[C@H](Cc1ccc(OCc2cccc(-c3ccccc3)c2C)c(Br)c1)NC(=O)[C@H](CCCNC(=N)N)NC(=O)[C@H](Cc1c[nH]c2ccccc12)NC(=O)[C@@H](N)Cc1ccccc1)C(=O)O [FWRXNNI] (H-FWR[X1]NNI-OH)
405 | Cc1c(COc2ccc(C[C@H](NC(=O)[C@@H](N)Cc3c[nH]c4ccccc34)C(=O)NCC(=O)O)cc2Br)cccc1-c1ccccc1 [WXG]
1.5 | Cc1c(COc2ccc(C[C@H](N)C(=O)O)cc2Br)cccc1-c1ccccc1 [X, (S)-2-amino-3-[3-bromo-4-{(2-methyl-1,1′-biphenyl-3-yl)methoxy}phenyl]propanoic acid]
6510 | Cc1c(COc2ccc(C[C@H](N)C(=O)NCC(=O)NCC(=O)O)cc2Br)cccc1-c1ccccc1 [XGG]
2650 | Cc1c(COc2ccc(C[C@H](N)C(=O)N[C@@H](CO)C(=O)O)cc2Br)cccc1-c1ccccc1 [XS]

Same assay, conditions: AlphaLISA, positive control

IC50 [µM] | Compound
0.0051 | nivolumab: anti-PD-1 mAb, positive control [reference compound]

Same assay, conditions: X (1.5 μM) vs BMS-8 ([…])

improvement of IC50 relative to BMS-8 | Compound
about five | Cc1c(COc2ccc(C[C@H](N)C(=O)O)cc2Br)cccc1-c1ccccc1 [X, (S)-2-amino-3-[3-bromo-4-{(2-methyl-1,1′-biphenyl-3-yl)methoxy}phenyl]propanoic acid]
